The conditions of series [1]: DTA; for Normal melting temperature: Crystal 1.
Series [2] is described as follows: Molar enthalpy of transition or fusion. Conditions: DSC.

Numbers after ± are expanded uncertainties.

In the case of `CCC[N+]1(C)CCCCC1.F[P-](F)(F)(F)(F)F` [1-methyl-1-propylpiperidinium hexafluorophosphate], the Normal melting temperature in series [1] is 95.1 ± 0.4 °C. Further, the Triple point temperature in series [1] (Crystal 2) worked out at 350.96 ± 0.39 K; in series [1] (Crystal 3), 310.6 ± 0.73 K. For the same compound, the “Molar enthalpy of transition or fusion” value is 1.23 ± 0.0454 kcal/mol in series [2] (Crystal 1), 0.664 ± 0.0335 kcal/mol in series [2] (Crystal 2) and 1.89 ± 0.1 kcal/mol in series [2] (Crystal 3).

Take `CCC[N+]1(C)CCCC1.F[P-](F)(F)(F)(F)F` [1-methyl-1-propylpyrrolidinium hexafluorophosphate]: the Normal melting temperature in series [1] was 110.5 ± 1.4 °C. Moreover, the Triple point temperature came to 360.88 ± 1.7 K in series [1] (Crystal 2) and 348.58 ± 1.3 K in series [1] (Crystal 3). Besides, the “Molar enthalpy of transition or fusion” value in series [2] (Crystal 1) came out at 0.875 ± 0.0765 kcal/mol; in series [2] (Crystal 2) it was 0.55 ± 0.0478 kcal/mol; in series [2] (Crystal 3), 0.66 ± 0.0502 kcal/mol.

In the case of `CCCC[N+](CCCC)(CCCC)CCCC.F[P-](F)(F)(F)(F)F` [tetrabutylammonium hexafluorophosphate], in series [1], the Normal melting temperature stood at 251.1 ± 0.9 °C. The Triple point temperature was found to be 360.7 ± 0.7 K in series [1] (Crystal 2) and 303.95 ± 0.39 K in series [1] (Crystal 3). Besides, the figures for the “Molar enthalpy of transition or fusion” value in series [2] (Crystal 1), in series [2] (Crystal 2) and in series [2] (Crystal 3) were 3.92 ± 0.153 kcal/mol, 0.492 ± 0.55 kcal/mol and 0.502 ± 0.0526 kcal/mol, respectively.

Take `CCCC[P+](CCCC)(CCCC)CCCC.F[P-](F)(F)(F)(F)F` [tetrabutylphosphonium hexafluorophosphate]: the Normal melting temperature in series [1] was 225.5 ± 0.4 °C. Further, the Triple point temperature in series [1] (Crystal 3) was found to be 265.37 ± 0.39 K. Besides, the “Molar enthalpy of transition or fusion” value in series [2] (Crystal 1) was determined as 3.51 ± 0.0884 kcal/mol; in series [2] (Crystal 3), 0.433 ± 0.0335 kcal/mol.

The values above are taken from the NIST ThermoML archive (doi:10.1016/j.fluid.2013.07.061).
